# Experimental data: US4067997A, “Synergistic microbecidal composition and method” (priority 1976, dated 1978)
# Read-outs that look alike come from different tables or passages of the source.
# Columns and labels:
# Group A Strep. = test: MIC of potassium soaps of unsaturated fatty acids (Example III); assay type: cell-based, Group A β-hemolytic Streptococci; details: Table 10, Group A Strep.
# Streptococcus Group D = test: MIC, broth dilution (Examples I/II); assay type: cell-based; details: Table 3, Streptococcus Group D
# Experimental: (§1) In order to establish comparative bactericidal and fungicidal results with homologous fatty acids, a series of experiments was performed with thirty straight-chain fatty acids and derivatives thereof. Eight different gram-negative and twelve different gram-positive organisms, representing a very broad spectrum of organisms, were used in these experiments including the fungus Candida (a yeast). Additionally, fatty acids were chosen to show the effects of saturation versus unsaturation, in the fatty acid claim. Standard solutions of the fatty acids and their derivatives were prepared by first dissolving the weighed compounds in 1 to 2 ml of 95% ethanol and immediately pouring this solution into 200 ml of Tripticase Soy Broth. These lipid compounds which are insoluble in water and broth precipitated into very small crystals or droplets. The tubes containing the suspension were warmed to approximately 70° C and were then placed in an ultrasonic tank for further solubilization of the lipid derivatives.
# (§2) Standard solutions (or suspensions) at 1,000 μg/ml were twofold serially diluted with additional broth to a concentration of 125 μg/ml. A 4-ml amount of each dilution was then quickly, and with constant agitation, dispensed into appropriately labeled screw-capped glass tubes (16 by 125 mm). The tubes were sterilized with steam at 15 psi for 15 minutes. After sterilization, all tubes were cooled and incubated overnight at 35° C to insure sterility.
# (§3) All compounds were compared on a molar (micromoles/milliliter) rather than on a mass basis. In the following lists of organisms used, those followed by a parenthetical number are registered with the American Type Culture Collection (ATCC); the remainder were isolates from Providence Hospital or Northland Laboratory.
# (§4) One drop (0.04 ± 0.01 ml) of an 18-hr broth culture containing 10^7 and 10^9 organisms/ml was added to each dilution of the test compound, as well as to a tube of plain broth which served as the positive control. After inoculation, the contents of each tube were well mixed, and the tubes were incubated at 35° C in a 5% carbon dioxide + […] atmosphere.
# (§5) The MIC is defined as the lowest concentration of compound at which no […] evidence of growth was observed when turbidity of the inoculated broth dilutions was compared with control tubes. […] Only a one-tube difference between the bactericidal and bacteriostatic concentrations was normally observed.
# (§6) Standard solutions (1000 μg/ml) of three fatty acids and polyglycerol esters thereof were prepared as described in Example I. Also sucrose esters were prepared by transferring the weighed compounds (0.2 gm. dissolved in 1 ml absolute methanol) into 200 ml of sterile Trypticase Soy Broth (TSB). These standard solutions (1000 μg/ml) were twofold serially diluted with additional sterile broth to a concentration of 125 μg/ml. A 3.8 aliquot of each dilution was asceptically delivered into sterile screw-capped culture tubes. All tubes were incubated overnight at 36° C to insure sterility. The microorganisms used in this example were the same as those used in Example I.
# (§7) The inoculum, 0.05 ml of an 13-24 hour TSB culture (approximately 10^9 organisms/ml) was asceptically delivered into all dilutions of the compounds, mixed well, and incubated at 36° C. A tube of inoculated broth without the compound served as a positive control and an uninoculated set of dilutions incubated along with the test dilutions, served as a negative control.
# (§8) In those cases in which the test compound itself caused turbidity, an aliquot (0.015 ml) of the mixed broth was inoculated onto an agar plate and incubated at 36° C for examination, as described in Example I. The control procedure of Example I was also repeated. The lauric, capric, and oleic acids were used as internal controls and for comparison to Example I. The minimal inhibitory concentrations (μmole/ml) for the compounds studied are given in Tables 7 and 8.
# Aspergillus niger = test: MIC, agar dilution method (Example XVI); assay type: cell-based
# Text: (§9) In a manner similar to that described in Example V, the effectiveness of certain food-grade microbecides are compared with mono-esters in an agar dilution method. The very favorable results may be noted from Table 19.
# Bacillus subtilis = test: MIC, agar dilution method (Example XVI); assay type: cell-based
# Text: as §9
# Canadida albicans = test: MIC, agar dilution method (Example XVI); assay type: cell-based
# Text: as §9
# Escherichia coli = test: MIC, agar dilution method (Example XVI); assay type: cell-based
# Text: as §9
# Pseudomonas aeruginosa = test: MIC, agar dilution method (Example XVI); assay type: cell-based
# Text: as §9
# Staphylococcus aureus = test: MIC, agar dilution method (Example XVI); assay type: cell-based
# Text: as §9
# Pneumococci = test: MIC, broth dilution (Examples I/II); assay type: cell-based, pneumococcus (63001); details: Table 8, Pneumococci
# Experimental: as §1, §2, §3, §4, §5, §6, §7, §8
# Streptococcus Group A = test: MIC, broth dilution (Examples I/II); assay type: cell-based, beta-hemolytic streptococci Group A; details: Table 8, Strep. Grp. A; for MIC (second value, in parentheses): parentheses not explained
# Experimental: as §1, §2, §3, §4, §5, §6, §7, §8
# Corynebacteria = test: MIC, broth dilution (Examples I/II); assay type: cell-based, Corynebacterium sp. (10700); details: Table 8, Corynebacteria; for MIC (second value, in parentheses): parentheses not explained
# Experimental: as §1, §2, §3, §4, §5, §6, §7, §8
# Nocardia asteroides = test: MIC, broth dilution (Examples I/II); assay type: cell-based, Nocardia asteroids (3308); details: Table 8, Nocardia asteroides; for MIC (second value, in parentheses): parentheses not explained
# Experimental: as §1, §2, §3, §4, §5, §6, §7, §8
# Micrococci = test: MIC, broth dilution (Examples I/II); assay type: cell-based, Micrococcus sp.; details: Table 8, Micrococci
# Experimental: as §1, §2, §3, §4, §5, §6, §7, §8
# S. epidermidis = test: MIC, broth dilution (Examples I/II); assay type: cell-based; details: for MIC: Table 8, Staph. epider., > = no inhibition, max. tested
# Experimental: as §1, §2, §3, §4, §5, §6, §7, §8
# Sarcina = test: MIC, broth dilution (Examples I/II); assay type: cell-based, Sarcina lutea (9431); details: for MIC: Table 8, Sarcina, > = no inhibition, max. tested
# Experimental: as §1, §2, §3, §4, §5, §6, §7, §8
# [1] = Aspergillus niger, Table 19, agar dilution, read-out: MIC
# [2] = Bacillus subtilis, Table 19, agar dilution, read-out: MIC
# [3] = Table 19, agar dilution, read-out: MIC
# [4] = Escherichia coli, Table 19, agar dilution, read-out: MIC
# [5] = Pseudomonas aeruginosa, Table 19, agar dilution, read-out: MIC
# [6] = Staphylococcus aureus, Table 19, agar dilution, read-out: MIC
Compound,MIC (Group A Strep.) [µM],MIC (Pneumococci) [µM],MIC (Streptococcus Group A) [µM],MIC (Corynebacteria) [µM],MIC (Nocardia asteroides) [µM],MIC (Micrococci) [µM],MIC (S. epidermidis) [µM],MIC (Sarcina) [µM],other results
CCCCCC=CCCCCCC=CCCCC(=O)O [.increment.^5 12],20,,,,,,,,
CCCCCCCC=CCCC=CCCCCC(=O)O [.increment.^6 10],10,,,,,,,,
CCCCCCC=CCCCC=CCCCCC(=O)O [.increment.^6 11],20,,,,,,,,
CCCCCC=CCCCCC=CCCCCC(=O)O [.increment.^6 12],10,,,,,,,,
CCCCCC=CCCCC=CCCCCCC(=O)O [.increment.^7 12],20,,,,,,,,
CCCCC/C=C/CC/C=C/CCCCCCC(=O)O [.increment.^8 12],20,,,,,,,,
CCCCCC=CCC=CCCCCCCCC(=O)O [.increment.^9 12],10,,,,,,,,
O=C(O)CCCCCCCCCCC(=O)O [Dodecanedioic acid],,,,,,,,,MIC (Streptococcus Group D): Ni
COC(=O)c1ccc(O)cc1 [Methyl paraben],,,,,,,,,MIC (Aspergillus niger; [1]): 2500 µg/mL; MIC (Bacillus subtilis; [2]): 5000 µg/mL; MIC (Canadida albicans; [3]): 2500 µg/mL; MIC (Escherichia coli; [4]): 2500 µg/mL; MIC (Pseudomonas aeruginosa; [5]): 5000 µg/mL; MIC (Staphylococcus aureus; [6]): 5000 µg/mL
CCCCCC/C=C\CCCCCCCC(=O)[O-].[Na+] [Palmitoleic acid sodium salt],,,,,,,,,MIC (Aspergillus niger; Aspergillus niger): > 1000 µg/mL; MIC (Bacillus subtilis; Bacillus subtilis): 500 µg/mL; MIC (Canadida albicans): > 1000 µg/mL; MIC (Escherichia coli; Escherichia coli): > 1000 µg/mL; MIC (Pseudomonas aeruginosa; Pseudomonas aeruginosa): > 1000 µg/mL; MIC (Staphylococcus aureus; Staphylococcus aureus): 15.6 µg/mL
Oc1ccccc1 [Phenol],,,,,,,,,MIC (Aspergillus niger; Aspergillus niger): 1250 µg/mL; MIC (Bacillus subtilis; Bacillus subtilis): 1250 µg/mL; MIC (Canadida albicans): 1250 to 2500 µg/mL; MIC (Escherichia coli; Escherichia coli): 2500 µg/mL; MIC (Pseudomonas aeruginosa; Pseudomonas aeruginosa): 1250 µg/mL; MIC (Staphylococcus aureus; Staphylococcus aureus): 1250 to 2500 µg/mL
CCCOC(=O)c1ccc(O)cc1 [Propyl paraben],,,,,,,,,MIC (Aspergillus niger; [1]): 2500 µg/mL; MIC (Bacillus subtilis; [2]): 2500 µg/mL; MIC (Canadida albicans; [3]): 2500 µg/mL; MIC (Escherichia coli; [4]): 5000 µg/mL; MIC (Pseudomonas aeruginosa; [5]): > 10000 µg/mL; MIC (Staphylococcus aureus; [6]): 2500 µg/mL
C/C=C/C=C/C(=O)O [Sorbic acid],,,,,,,,,MIC (Aspergillus niger; [1]): 1000 µg/mL; MIC (Bacillus subtilis; [2]): 1000 µg/mL; MIC (Canadida albicans; [3]): 1000 µg/mL; MIC (Escherichia coli; [4]): 1000 µg/mL; MIC (Pseudomonas aeruginosa; [5]): 2000 µg/mL; MIC (Staphylococcus aureus; [6]): 1000 µg/mL
C[CH2][Hg][S]c1ccccc1C(=O)[O-].[Na+] [Thimerosal],,,,,,,,,"MIC (Aspergillus niger; Table 19, agar dilution): 0.10 µg/mL; MIC (Bacillus subtilis; Table 19, agar dilution): 0.39 µg/mL; MIC (Canadida albicans; Table 19, agar dilution): 0.10 to 0.20 µg/mL; MIC (Escherichia coli; Table 19, agar dilution): 1.60 µg/mL; MIC (Pseudomonas aeruginosa; Table 19, agar dilution): 6.30 to 12.50 µg/mL; MIC (Staphylococcus aureus; Table 19, agar dilution): 0.78 µg/mL"
Sucrose caprate,,60,60,250,250,1000,> 2000,> 2000,
Sucrose elaidate,,200,200,1640,200,820,> 1640,> 1640,
Sucrose laurate,,120,30,470,470,1900,> 1900,> 1900,"MIC (second value, in parentheses) (Streptococcus Group A): 120 µM; MIC (second value, in parentheses) (Corynebacteria): 230 µM; MIC (second value, in parentheses) (Nocardia asteroides): 1900 µM"
Sucrose linoleate,,50,410,> 1660,410,820,> 1660,> 1660,"MIC (second value, in parentheses) (Streptococcus Group A): 820 µM; MIC (second value, in parentheses) (Corynebacteria): 1660 µM; MIC (second value, in parentheses) (Nocardia asteroides): 1660 µM"
Sucrose myristate,,230,50,110,230,230,> 1840,> 1840,"MIC (second value, in parentheses) (Streptococcus Group A): 110 µM; MIC (second value, in parentheses) (Corynebacteria): 110 µM; MIC (second value, in parentheses) (Nocardia asteroides): 110 µM"
Sucrose oleate,,50,> 1640,> 1640,410,210,> 1640,> 1640,"MIC (second value, in parentheses) (Streptococcus Group A): 410 µM; MIC (second value, in parentheses) (Corynebacteria): > 1640 µM; MIC (second value, in parentheses) (Nocardia asteroides): 210 µM"
Sucrose palmitate,,50,100,430,430,260,860,430,"MIC (second value, in parentheses) (Streptococcus Group A): 200 µM; MIC (second value, in parentheses) (Corynebacteria): 260 µM; MIC (second value, in parentheses) (Nocardia asteroides): > 1720 µM; Inhibition in words (S. epidermidis; S. epidermis): only ester which inhibits S. epidermis; Inhibition in words (Sarcina; Sarcina): only ester which inhibits S. epidermis and Sarcina"
